Results as given in patent publication US8138170B2, “Immunosuppressive Ningalin compounds” (Memorial Sloan-Kettering Cancer Center, priority 2004, dated 2012).
Several values for one entry are separate records, joined by “and”; a condition that tells them apart may be missing. Equal entries are not always repeated. Where two headings read alike, the source gives them in different places.

How the values were obtained:
[1] = system: P388/DX leukemic cells resistant to Adriamycin; conditions: for Log cell kill: calculated assuming doubling time 0.4 day
[2] = system: carrageenan-induced paw edema; assay: Carrageenan-induced paw edema; assay type: in vivo, B6D2F1 mice; conditions: for Pedis Area: individual mice 1-4; for Pedis Area, Mean: mean of 4 mice
Procedure: Carrageene (1%, 30 μl) was injected i.m. into the pedis of B6D2F1 mice (4 mice/group) to induced edemic inflammation at 0 hours. N3, N5 (i.p. injection) or oral administration of aspirin 500 mg/kg, or topical application of hydrocortisone cream (1%) or Lidex cream (0.05%) to the pedis skins were given at −1, 6, 12 and 24 hours. The control mice received dimethylsulfoxide (the vehicle of ningalins). The pedis areas (in mm^2) were measured at 0, 3, 6, 12, 24, 36 and 48 hours.

C57BL/6 heart allografts = assay: Heterotopic heart transplantation in mice; assay type: in vivo, Balb/c mice
Procedure: Heterotopic heart transplantation was performed in rats and mice. In brief, heart transplantation was performed by previously described modified method. Hearts harvested from donors were perfused with chilled saline and immediately transplanted to recipients under full anesthesia. Suture 10-0 in rats and 12-0 in mice (Ethicon; Somerville, N.J.) was used to perform anastomosis of aorta to aorta and pulmonary artery to vena cava. Heartbeat was evaluated daily and the day of complete cessation was considered rejection. Animals that died within three days after transplantation were excluded from the analysis (less than 5%).
Mice were also transplanted with heart allografts. In particular, untreated Balb/c (H-2^d) recipients rejected C57BL/6 (H-2^b) heart allografts at a MST of 7.8±0.84 days (n=5). Treatment with 40 mg/kg N5, QDx7, extended heart allograft survival to 13.33±2.52 days, which increased life span 71% (n=3; p<0.03).
Mice heart allografts were treated with 20 mg/kg of N3, QDx7, i.p. In particular, untreated Balb/c (H-2^d) recipients rejected C57BL/6 ([…]) heart allografts at a MST of […] days (n=5). Treatment with 20 mg/kg of N3 (i.e., one-half of dose of N5) extended heart allograft survival to 18.75±3.86 days (n=4; p<0.0005), an increase in lifespan of 140%.

human lymphocytes = assay: Inhibition of PHA-stimulated lymphocyte proliferation ([3H]thymidine incorporation); assay type: cell-based; conditions: for IC50: read-out: Immunosuppressive Effect (IC50 in μM) [B]
P388/DX leukemic cells = assay type: in vivo, B6D2F1 mice; conditions: for Log cell kill: calculated assuming doubling time 0.4 day
[3] = Cytotoxicity measured by cell proliferation inhibition; assay type: cell-based
[4] = Adriamycin 3.0 mg/kg iv alone or with N3 20 mg/kg ip, QD × 3
[5] = N3 20 mg/kg ip and/or Adriamycin 1.5 mg/kg iv, QD × 3
[6] = 0 hr, aspirin 500 mg/kg oral, N3 100 mg/kg i.p., N5 50 mg/kg i.p., hydrocortisone cream 1%, Lidex cream 0.05% topical, given at −1, 6, 12, 24 hours
[7] = PHA-stimulated human lymphocyte proliferation
[8] = N3 20 mg/kg ip and/or Taxol 5.0 mg/kg iv, QD × 3
[9] = Taxol 10.0 mg/kg iv alone or with N3 20 mg/kg ip, QD × 3

Structure (SMILES) | Lifespan increase (%) [1, 5] | Median survival time (days ± SD) [1, 5] | Pedis Area [2, 6] | Pedis Area, Mean ([2]; 0 hr, doses as E35) | Pedis Area ([2]; 3 hr, doses as E35) | Pedis Area, Mean ([2]; 3 hr, doses as E35) | Pedis Area ([2]; 6 hr, doses as E35) | Pedis Area, Mean ([2]; 6 hr, doses as E35) | Pedis Area ([2]; 12 hr, doses as E35) | Pedis Area, Mean ([2]; 12 hr, doses as E35) | Pedis Area ([2]; 24 hr, doses as E35) | Pedis Area, Mean ([2]; 24 hr, doses as E35) | Pedis Area ([2]; 36 hr, doses as E35) | Pedis Area, Mean ([2]; 36 hr, doses as E35) | Pedis Area ([2]; 48 hr, doses as E35) | Pedis Area, Mean ([2]; 48 hr, doses as E35) | IC50 (human lymphocytes; [7]) | Lifespan increase (%) (P388/DX leukemic cells; [8]) | Median survival time (days ± SD) (P388/DX leukemic cells; [8]) | IC50 [3] | also measured
COc1cccc2c1C(=O)c1c(O)c3c(c(O)c1C2=O)C[C@@](O)(C(=O)CO)C[C@@H]3O[C@H]1C[C@H](N)[C@H](O)[C@H](C)O1 [Adriamycin, Doxorubicin] | +7% | 11.25 ± 1.75 days |  |  |  |  |  |  |  |  |  |  |  |  |  |  |  |  |  |  | Log cell kill ([1]; Adriamycin 1.5 mg/kg iv alone or with N3 20 mg/kg ip): 0.56; Lifespan increase (%) [1, 4]: +15%; Lifespan increase (days) [1, 4]: +1.58 days; Median survival time (days ± SD) [1, 4]: 12.08 ± 1.81 days; Log cell kill ([1]; Adriamycin 3.0 mg/kg iv alone or with N3 20 mg/kg ip): 1.19; Lifespan increase (days) [1, 5]: +0.75 days
CC(=O)Oc1ccccc1C(=O)O [Aspirin, aspirin, reference compound] |  |  | 100 mm^2 | 100 mm^2 | 142.2 mm^2 and 130.5 mm^2 and 122 mm^2 and 134.5 mm^2 | 132.3 mm^2 | 151.4 mm^2 and 139.8 mm^2 and 124.6 mm^2 and 149.6 mm^2 | 141.4 mm^2 | 138.5 mm^2 and 135.6 mm^2 and 120.3 mm^2 and 138.9 mm^2 | 133.3 mm^2 | 116.5 mm^2 and 116.9 mm^2 and 108.5 mm^2 and 118.6 mm^2 | 115.1 mm^2 | 114.7 mm^2 and 107.6 mm^2 and 94.1 mm^2 and 109.7 mm^2 | 106.5 mm^2 | 118.3 mm^2 and 105.9 mm^2 and 92.4 mm^2 and 111.5 mm^2 | 107 mm^2 |  |  |  |  | 
COc1ccc(CCn2cc(-c3ccc(OC)c(OC)c3)c3c4cc(OC)c(OC)cc4oc(=O)c32)cc1OC [Ningalin N3, 1-(3,4-Dimethoxy-phenyl)-3-[2-(3,4-dimethoxy-phenyl)-ethyl]-7,8-dimethoxy-3H-5-oxa-3-aza-cyclopenta[α]naphthalen-4-one] | −12% | 9.25 ± 0.66 days | 100 mm^2 | 100 mm^2 | 134.4 mm^2 and 142.7 mm^2 and 141.7 mm^2 and 139.5 mm^2 | 139.6 mm^2 | 140.6 mm^2 and 159.2 mm^2 and 153.4 mm^2 and 151.8 mm^2 | 151.3 mm^2 | 140.6 mm^2 and 150.5 mm^2 and 139.8 mm^2 and 135.1 mm^2 | 141.5 mm^2 | 134.4 mm^2 and 142.7 mm^2 and 136.9 mm^2 and 128.1 mm^2 | 135.5 mm^2 | 131.1 mm^2 and 136.9 mm^2 and 121.9 mm^2 and 127.9 mm^2 | 129.5 mm^2 | 131.1 mm^2 and 136.9 mm^2 and 115.8 mm^2 and 126 mm^2 | 127.5 mm^2 | 0.51 ± 0.19 µM | −13% | 8.00 ± 0.54 days | 51.3 ± 18 µM | MST ± SD days (heart allograft survival) (C57BL/6 heart allografts; B6 heart to Balb/c, N3 20 mg/kg QDx7 i.p., 20 mg/kg): 18.75±3.86 days; increase in lifespan (C57BL/6 heart allografts; heart allograft, N3 20 mg/kg QDx7 i.p., vs untreated): 140%; Survival days (individual animals) (C57BL/6 heart allografts; heart, N3 20 mg/kg, 20 mg/kg): 19 days and 24 days and 15 days and 17 days; anti-inflammatory effect (FIG. 3) ([2]; N5 50 mg/kg i.p., N3 100 mg/kg i.p., all drugs: at 12-48 hours): produced an anti-inflammatory effect; Lifespan increase [1, 5]: -1.25 days; decreased the lifespan ([1]; N3 alone 20 mg/kg i.p. daily for three days, vs control): 12%; lifespan of tumor bearing mice compared to saline treated controls (P388/DX leukemic cells; N3 20 mg/kg i.p. daily for three days): decreased the lifespan; Lifespan increase (P388/DX leukemic cells; [8]): -1.19 days
COC(=O)c1c(-c2cc(OC)c(OC)c(OC)c2)c(-c2cc(OC)c(OC)c(OC)c2)c(C(=O)OC)n1CCc1ccc(OC)cc1 [Ningalin N6, 1-[2-(4-Methoxy-phenyl)-ethyl]-3,4-bis-(3,4,5-trimethoxy-phenyl)-1H-pyrrole-2,5-dicarboxylic acid dimethyl ester] |  |  |  |  |  |  |  |  |  |  |  |  |  |  |  |  | 1.61 ± 0.31 µM |  |  | 70.2 ± 20.5 µM | Selectivity Ratio [A]/[B] (human lymphocytes; cytotoxicity IC50 / immunosuppressive IC50): 43.6
CC(=O)O[C@H]1C(=O)[C@@]2(C)[C@H]([C@H](OC(=O)c3ccccc3)[C@]3(O)C[C@H](OC(=O)[C@H](O)[C@@H](NC(=O)c4ccccc4)c4ccccc4)C(C)=C1C3(C)C)[C@]1(OC(C)=O)CO[C@@H]1C[C@@H]2O [Taxol, paclitaxel] |  |  |  |  |  |  |  |  |  |  |  |  |  |  |  |  |  | +4% | 9.56 ± 0.62 days |  | Lifespan increase (days) (P388/DX leukemic cells; [8]): +0.37 days; Log cell kill (P388/DX leukemic cells; Taxol 5.0 mg/kg iv alone or with N3 20 mg/kg ip): 0.28; Lifespan increase (%) (P388/DX leukemic cells; [9]): +4%; Lifespan increase (days) (P388/DX leukemic cells; [9]): +0.37 days; Median survival time (days ± SD) (P388/DX leukemic cells; [9]): 9.56 ± 0.88 days; Log cell kill (P388/DX leukemic cells; Taxol 10.0 mg/kg iv alone or with N3 20 mg/kg ip): 0.28
COc1ccc(CCN(C)CCCC(C#N)(c2ccc(OC)c(OC)c2)C(C)C)cc1OC (centres unmarked) [Verapamil, reference compound] |  |  |  |  |  |  |  |  |  |  |  |  |  |  |  |  |  |  |  |  | IC50 (human lymphocytes; Homo sapiens, Lymphocyte): 6.9 ± 1.01 µM
